From paper PMC3923664, “A Long-Chain Flavodoxin Protects Pseudomonas aeruginosa from Oxidative Stress and Host Bacterial Clearance” (PLoS Genetics, 2014)

Legend:
[1] = biological target: T1, FldA (Escherichia coli, UniProt P61949); test: UV-visible absorption spectrum of purified holoprotein; format: binding; conditions: co-purified prosthetic group; 50 mM Tris-HCl pH 8.5
T1 construct: purified; preparation not described
T1 sequence (P61949 2-176): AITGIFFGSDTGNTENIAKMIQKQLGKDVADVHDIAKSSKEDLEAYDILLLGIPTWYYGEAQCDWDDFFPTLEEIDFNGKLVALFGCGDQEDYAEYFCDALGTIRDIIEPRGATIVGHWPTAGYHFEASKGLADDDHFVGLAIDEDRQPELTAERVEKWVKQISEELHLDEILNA

[2] = biological target: T2, IsiB (Nostoc sp. PCC 7119, UniProt P0A3E0); test: as above; format: binding; conditions: co-purified prosthetic group; 50 mM Tris-HCl pH 8.5
T2 construct: recombinant, expressed in E. coli and purified after Fillat et al; long-chain flavodoxin
T2 sequence (P0A3E0 2-170): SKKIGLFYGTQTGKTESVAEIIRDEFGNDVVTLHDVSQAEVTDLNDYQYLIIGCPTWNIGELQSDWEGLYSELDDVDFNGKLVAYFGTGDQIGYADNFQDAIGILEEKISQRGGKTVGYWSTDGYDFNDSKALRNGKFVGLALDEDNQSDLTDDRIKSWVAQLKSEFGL

Structure (SMILES): Cc1cc2nc3c(=O)[nH]c(=O)nc-3n(C[C@H](O)[C@H](O)[C@H](O)COP(=O)(O)O)c2cc1C [FMN]
- UV-visible absorption spectrum of purified holoprotein [1]: is strongly red-shifted in the flavodoxins from Anabaena and E. coli (Figure 2A)
- UV-visible absorption spectrum of purified holoprotein [2]: is strongly red-shifted in the flavodoxins from Anabaena and E. coli (Figure 2A)
